# Experimental data: patent publication US20080027042A1, “Novel Aminopyridine Derivatives Having Aurora a Selective Inhibitory Action” (priority 2004, published 2008)
# Where a name gives a salt, the structure may show the parent alone.
# Legend:
# Aurora B = molecular target: T1, Aurora B (Homo sapiens, UniProt Q96GD4); test: Aurora B inhibitory action (33P-ATP kinase assay, Kemptide substrate); format: biochemical; conditions: 100 μM ATP, 30° C., 20 minutes
# T1 construct: histidine tag (N); made in house; host or cells: Escherichia coli BL21-CodonPlus(DE3)-RIL
# T1 sequence (Q96GD4 whole entry): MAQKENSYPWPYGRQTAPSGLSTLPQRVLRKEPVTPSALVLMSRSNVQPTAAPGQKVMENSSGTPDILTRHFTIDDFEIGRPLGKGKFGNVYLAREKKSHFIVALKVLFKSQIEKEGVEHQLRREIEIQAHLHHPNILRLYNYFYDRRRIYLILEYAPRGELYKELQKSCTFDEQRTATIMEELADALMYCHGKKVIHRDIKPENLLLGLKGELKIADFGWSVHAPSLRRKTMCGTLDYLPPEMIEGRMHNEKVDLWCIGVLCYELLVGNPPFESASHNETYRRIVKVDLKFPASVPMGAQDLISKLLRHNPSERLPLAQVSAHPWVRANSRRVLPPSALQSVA
# Excerpt: Aurora B Inhibitory Action
# (1) Purification of Aurora B
# (§1) cDNA of Aurora B having histidine tag fused at the amino terminal was integrated into an expression vector, which was then highly expressed in Escherichia coli BL21-CodonPlus(DE3)-RIL cells. The Escherichia coli cells were recovered and solubilized, and then the histidine-tagged […] protein was adsorbed onto a nickel chelate column and eluted from the column with imidazole. The active fraction was desalted with a desalting column to give a pure enzyme.
# (2) Measurement of Activity of Aurora B
# For measurement of the activity of Aurora B, the substrate used was Kemptide (Lys-Arg-Arg-Ala-Ser-Lys-Gly) (SEQ.ED.NO.: 1), a synthetic peptide purchased from Sigma-Aldrich, Inc. [Certificate of analysis (Upstate, Inc.)].
# Reaction was conducted by a partial modification of the method of activity measurement for Aurora A. The amount of the reaction liquid was 21.1 μL, and the composition of the reaction buffer (R2 buffer) was 50 mM Tris-hydrochloride buffer (pH 7.4)/15 mM magnesium acetate/0.2 mM ethylenediamine-N,N,N′,N′-tetraacetate (EDTA). To this, purified Aurora B, 100 μM of a substrate peptide, 100 μM of unlabeled adenosine triphosphate (ATP) and 1 μCi of [γ-^33P] labeled ATP (2,500 Ci/mmole or more) were added, and the mixture was reacted at 30° C. for 20 minutes. Then, 10 μL of 350 mM phosphate buffer was added to the reaction system to stop the reaction. The substrate peptide was adsorbed on a P81 paper filter 96-well plate and then washed with 130 mM phosphate buffer for several times. The radiation activity of the peptide was measured with a liquid scintillation counter. The [γ-^33P] labeled ATP was purchased from Amersham Biosciences Co., Ltd.
# (§2) The compound to be tested was added to the reaction system such that a dilution series of the compound in dimethylsulfoxide was first prepared, and 1.1 μL of this solution was added. A control was provided by adding 1.1 μL of DMSO to the reaction system.
# Aurora A = molecular target: T2, Aurora A (Homo sapiens, UniProt O14965); test: Aurora A inhibitory action (33P-ATP kinase assay, Kemptide substrate); format: biochemical; conditions: 20 μM ATP, 30° C., 20 minutes
# T2 construct: histidine tag (N); made in house; host or cells: Escherichia coli BL21-CodonPlus(DE3)-RIL
# T2 sequence (O14965 1-403): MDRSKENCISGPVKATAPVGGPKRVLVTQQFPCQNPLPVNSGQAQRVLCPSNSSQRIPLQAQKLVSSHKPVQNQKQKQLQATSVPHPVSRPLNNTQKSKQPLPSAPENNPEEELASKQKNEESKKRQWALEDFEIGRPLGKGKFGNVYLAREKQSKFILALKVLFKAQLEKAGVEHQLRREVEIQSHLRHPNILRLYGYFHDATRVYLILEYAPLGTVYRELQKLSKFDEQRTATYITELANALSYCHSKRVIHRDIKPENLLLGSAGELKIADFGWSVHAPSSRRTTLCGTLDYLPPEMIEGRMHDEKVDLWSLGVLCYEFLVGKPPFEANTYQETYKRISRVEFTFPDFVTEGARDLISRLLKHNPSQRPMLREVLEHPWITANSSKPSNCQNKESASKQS
# Excerpt: Aurora A Inhibitory Action
# (1) Purification of Aurora A
# as §1, with “A” for “B”, “BL2 1-CodonPlus(DE3)-RIL” for “BL21-CodonPlus(DE3)-RIL”
# (2) Measurement of Activity of Aurora A
# For measurement of the activity of Aurora A, the substrate used was Kemptide (Lys-Arg-Arg-Ala-Ser-Lys-Gly) (SEQ.ID.NO.: 1), a synthetic peptide purchased from Sigma-Aldrich, Inc. [Certificate of analysis (Upstate, Inc.)].
# Reaction was conducted by a partial modification of a method by Upstate, Inc. [Kinase Profiler™ Assay Protocols]. The amount of the reaction liquid was 21.1 μL, and the composition of the reaction buffer (R2 buffer) was 50 mM Tris-hydrochloride buffer (pH 7.4)/15 mM magnesium acetate/0.2 mM ethylenediamine-N,N,N′,N′-tetraacetate (EDTA). To this, purified Aurora A, 100 μM of a substrate peptide, 20 μM of unlabeled adenosine triphosphate (ATP) and 0.5 μCi of [γ-^33P] labeled ATP (2,500 Ci/mmole or more) were added, and the mixture was reacted at 30° C. for 20 minutes. Then, 10 μL of 350 mM phosphate buffer was added to the reaction system to stop the reaction. The substrate peptide was adsorbed on a P81 paper filter 96-well plate and then washed with 130 mM phosphate buffer for several times. The radiation activity of the peptide was measured with a liquid scintillation counter. The [γ-^33P] labeled ATP was purchased from Amersham Biosciences Co., Ltd.
# as §2
Compound,IC50 (Aurora B) [µM],IC50 (Aurora A) [µM]
"O=C(c1cc(CN2CCN(C(=O)c3cccc(Cl)c3F)CC2)nc(Nc2nccs2)c1)N1CCCC1 [Example 84, 6-((4-(3-chloro-2-fluorobenzoyl)piperazin-1-yl)methyl)-4-(pyrrolidin 1-ylcarbonyl)-N-thiazol-2-ylpyridin-2-amine trifluoroacetate]",0.4,0.00072
"CNC(=O)c1cc(CN2CCN(C(=O)c3cccc(Cl)c3F)CC2)nc(Nc2nccs2)c1 [Example 85, 2-((4-(3-chloro-2-fluorobenzoyl)piperazin-1-yl)methyl)-N-methyl-6-(thiazol-2-ylamino)isonicotinamide trifluoroacetate]",0.61,0.001
"NC(=O)c1cc(CN2CCN(C(=O)c3cccc(Cl)c3F)CC2)nc(Nc2nccs2)c1 [Example 87, 2-((4-(3-chloro-2-fluorobenzoyl)piperazin-1-yl)methyl)-6-(thiazol-2-ylamino)isonicotinamide trifluoroacetate]",1.4,0.0012
"O=C(NCCO)c1cc(CN2CCN(C(=O)c3cccc(Cl)c3F)CC2)nc(Nc2nccs2)c1 [Example 88, 2-((4-(3-chloro-2-fluorobenzoyl)piperazin-1-yl)methyl)-N-(2-hydroxyethyl)-6-(thiazol-2-ylamino)isonicotinamide trifluoroacetate]",1,0.00072
"O=C(c1cccc(Cl)c1F)N1CCN(Cc2cc(Cn3ccnn3)cc(Nc3nccs3)n2)CC1 [Example 90, 6-((4-(3-chloro-2-fluorobenzoyl)piperazin-1-yl)methyl)-N-thiazol-2-yl-4-(1H-1,2,3-triazol-1-ylmethyl)pyridin-2-amine trifluoroacetate]",0.86,0.0015
"O=C(c1cccc(Cl)c1F)N1CCN(Cc2cc(Cn3nccn3)cc(Nc3nccs3)n2)CC1 [Example 91, 6-((4-(3-chloro-2-fluorobenzoyl)piperazin-1-yl)methyl)-N-thiazol-2-yl-4-(2H-1,2,3-triazol-2-ylmethyl)pyridin-2-amine trifluoroacetate]",1.2,0.0014
"O=C(c1cccc(Cl)c1F)N1CCN(Cc2cc(Cn3cncn3)cc(Nc3nccs3)n2)CC1 [Example 92, 6-((4-(3-chloro-2-fluorobenzoyl)piperazin-1-yl)methyl)-N-thiazol-2-yl-4-(1H-1,2,4-triazol-1-ylmethyl)pyridin-2-amine trifluoroacetate]",0.83,0.00093
"CS(=O)(=O)Cc1cc(CN2CCN(C(=O)c3cccc(Cl)c3F)CC2)nc(Nc2nccs2)c1 [Example 93, 6-((4-(3-chloro-2-fluorobenzoyl)piperazin-1-yl)methyl)-4-((methanesulfonyl)methyl)-N-thiazol-2-ylpyridin-2-amine]",0.25,0.00036
"CN(C)Cc1cc(CN2CCN(C(=O)c3cccc(Cl)c3F)CC2)nc(Nc2nccs2)c1 [Example 94, 6-((4-(3-chloro-2-fluorobenzoyl)piperazin-1-yl)methyl)-4-((dimethylamino)methyl)-N-thiazol-2-ylpyridin-2-amine]",1.1,0.0011
"O=C(c1cccc(Cl)c1F)N1CCN(Cc2cc(N3CCCC3=O)cc(Nc3nccs3)n2)CC1 [Example 96, 1-(2-((4-(3-chloro-2-fluorobenzoyl)piperazin-1-yl)methyl)-6-(thiazol-2-ylamino)pyridin-4-yl)pyrrolidin-2-one]",0.69,0.00057
"O=C(c1cccc(Cl)c1F)N1CCN(Cc2cc(N3CCOC3=O)cc(Nc3nccs3)n2)CC1 [Example 97, 3-(2-((4-(3-chloro-2-fluorobenzoyl)piperazin-1-yl)methyl)-6-(thiazol-2-ylamino)pyridin-4-yl)-1,3-oxazolidin-2-one]",0.83,0.00062
"CN1CCN(c2cc(CN3CCN(C(=O)c4cccc(Cl)c4F)CC3)nc(Nc3nccs3)c2)C1=O [Example 98, 3-(2-((4-(3-chloro-2-fluorobenzoyl)piperazin-1-yl)methyl)-6-(thiazol-2-ylamino)pyridin-4-yl)-3-methylimidazolidin-2-one]",0.23,0.00036
"O=C(c1cccc(F)c1F)N1CCN(Cc2cc(NCC(F)F)cc(Nc3nccs3)n2)CC1 [Example 100, 6-((4-(2,3-difluorobenzoyl)piperazin-1-yl)methyl)-N4-(2,2-difluoroethyl)-N^2-thiazol-2-ylpyridine-2,4-diamine]",1.3,0.0026
"O=C(c1cccc(F)c1F)N1CCN(Cc2cc(N3CCOCC3)cc(Nc3nccs3)n2)CC1 [Example 103, 6-((4-(2,3-difluorobenzoyl)piperazin-1-yl)methyl)-4-morpholin-4-yl-N-thiazol-2-ylpyridin-2-amine]",0.25,0.00076
"O=C(c1cccc(Cl)c1F)N1CCN(Cc2cc(-c3nn[nH]n3)cc(Nc3nccs3)n2)CC1 [Example 105, 6-((4-(3-chloro-2-fluorobenzoyl)piperazin-1-yl)methyl)-4-(2H-tetrazol-5-yl)-N-thiazol-2-ylpyridin-2-amine]",1,0.0014
"Cc1nc(-c2cc(CN3CCN(C(=O)c4cccc(Cl)c4F)CC3)nc(Nc3nccs3)c2)no1 [Example 109, 6-((4-(3-chloro-2-fluorobenzoyl)piperazin-1-yl)methyl)-4-(5-methyl-1,2,4-oxadiazol-3-yl)-N-thiazol-2-ylpyridin-2-amine]",0.52,0.00042
"Cc1noc(-c2cc(CN3CCN(C(=O)c4cccc(Cl)c4F)CC3)nc(Nc3nccs3)c2)n1 [Example 110, 6-((4-(3-chloro-2-fluorobenzoyl)piperazin-1-yl)methyl)-4-(3-methyl-1,2,4-oxadiazol-5-yl)-N-thiazol-2-ylpyridin-2-amine]",0.75,0.00059
"O=C(c1cccc(Cl)c1F)N1CCN(Cc2cccc(Nc3ncc(F)s3)n2)CC1 [Example 112, 6-((4-(3-chloro-2-fluorobenzoyl)piperazin-1-yl)methyl)-N-(5-fluorothiazol-2-yl)pyridin-2-amine]",0.23,0.00081
